Experimental data from US20260158172A1, “CELL DEATH METHOD USING CRISPR/CAS SYSTEM HAVING SINGLE-STRAND BREAK ACTIVITY AND PARP INHIBITOR” (INSTITUTE FOR BASIC SCIENCE, priority 2023, published 2026).

Assays:
Type in all cases: cell-based
[1] = system: HCT-116 cells; assay: Cell viability (CellTiter-Glo), Experimental Example 4: dependence on olaparib concentration; conditions: nCas9 D10A RNP or siRNA co-treatment, Non-treated (label Olaparib) = PARP inhibitor only
Protocol: (§1) To transfect RNPs, cells were transfected with 665 ng of the Cas protein of each Embodiment and 95 ng of the sgRNA of each Embodiment using a Lipofectamine CRISPRMAX Cas9 Transfection Reagent (Invitrogen, #CMAX00015), and then cultured for 3 days. When treated together with a PARP inhibitor, the PARP inhibitor was treated according to Experimental Example 1.6, and the RNPs were treated one day thereafter.
(§2) To compare cell death effects depending on the concentration of a PARP inhibitor administered, the following experiment was performed. Specifically, Hela cells and HCT-116 cells cultured according to Experimental Example 1.1 were treated with a PARP inhibitor (olaparib) and a CRISPR/nCas composition for cell death having the compositions shown in the following table.
(§3) For each labeled material, experiments were conducted while varying the concentration of olaparib.
(§4) Here, in the case of siRNA, an siRNA having the sequence […] (SEQ ID NO: 40) was used, and 20 pmole thereof was delivered to the cells according to Experimental Example 1.7. After the experiment, cell viability was measured according to Experimental Example 1.8.

[2] = system: HeLa cells; assay: as above; conditions: nCas9 D10A RNP or siRNA co-treatment, Non-treated (label Olaparib) = PARP inhibitor only
Protocol: as §1, §2, §3, §4

[3] = system: HCT-116 cells; assay: Cell viability (CellTiter-Glo), Experimental Example 5: type of PARP inhibitor; conditions: olaparib 1 μM, rucaparib 1 μM, niraparib 0.1 μM, veliparib 2 μM
Protocol: (§5) A total of 0.5×10^4 cells were mixed with 1 μM olaparib (AZD2281) (Selleckchem, #S1060), 1 μM rucaparib (Selleckchem, #S4948), 0.1 μM niraparib (MK-4827) (Selleckchem, #S2741), 2 μM veliparib (ABT-888) (Selleckchem, #S1004), or 10 µM iniparib (BSI-201) (Selleckchem, #S1087), and seeded onto 24-well plates.
as §1
(§6) Cell viability was measured using a CellTiter-Glo Luminescent Cell Viability Assay (Promega, #G7571). After the transfected cells were cultured for 3 days, the cells were detached using Trypsin-EDTA (0.25%) (Gibco, #25200056). The cells were diluted in 400 μL of DMEM, followed by dispensing 100 μL of the cells, mixed with 100 μL of the CellTiter-Glo Reagent, and then incubated at room temperature for 10 minutes. Luminescence signals were measured using an Infinite 200 (Tecan) in a white opaque 96-well plate (Corning, #3917).
(§7) Specifically, Hela cells and HCT-116 cells cultured according to Experimental Example 1.1 were treated with a PARP inhibitor and a CRISPR/nCas composition for cell death having the compositions shown in the following table.
(§8) For each RNP composition of the embodiment using nCas9^D10A, one PARP inhibitor selected from olaparib, rucaparib, niraparib, veliparib, and iniparib was co-administered. DMSO was used as a control.
(§9) The Cas protein and the nCas protein used in this experiment were prepared according to Experimental Example 1.2, and the sgRNA used was prepared according to Experimental Example 1.3. The nCas protein and the sgRNA were administered to the cells in the form of RNPs according to Experimental Example 1.7. The cells were each treated with the respective PARP inhibitors at the concentrations disclosed in Experimental Example 1.6 using the materials disclosed in the above table.
(§10) Thereafter, cell viability was measured according to Experimental Example 1.8.

[4] = system: HeLa cells; assay: as above; conditions: olaparib 1 μM, rucaparib 1 μM, niraparib 0.1 μM, veliparib 2 μM
Protocol: as §5, §1, §6, §7, §8, §9, §10

[5] = olaparib 10 μM, listed as olaparib
[6] = PARP inhibitor with nCas9^D10A, Target = Mock (PBS instead of sgRNA)
[7] = drug_only (no Cas protein, no guide RNA)

## O=C(c1cc(Cc2n[nH]c(=O)c3ccccc23)ccc1F)N1CCN(C(=O)C2CC2)CC1 [Olaparib, olaparib]
[1]; olaparib 0.0001 μM
  Relative cell viability (average, n = 3): 1.0000
[1]; olaparib 0.001 μM
  Relative cell viability (average, n = 3): 0.9939
[1]; olaparib 0.01 μM
  Relative cell viability (average, n = 3): 0.9743
[1]; olaparib 0.1 μM
  Relative cell viability (average, n = 3): 1.0072
[1]; olaparib 1 μM
  Relative cell viability (average, n = 3): 1.0307
[1]; olaparib 10 μM
  Relative cell viability (average, n = 3): 0.7979
[1]; [5]
  Relative cell viability (average, n = 3): exhibits cytotoxicity
[2]; olaparib 0.0001 μM
  Relative cell viability (average, n = 3): 1.0000
[2]; olaparib 0.001 μM
  Relative cell viability (average, n = 3): 0.9810
[2]; olaparib 0.01 μM
  Relative cell viability (average, n = 3): 0.9959
[2]; olaparib 0.1 μM
  Relative cell viability (average, n = 3): 0.9391
[2]; olaparib 1 μM
  Relative cell viability (average, n = 3): 0.9279
[2]; olaparib 10 μM
  Relative cell viability (average, n = 3): 0.1192
[2]; [5]
  Relative cell viability (average, n = 3): exhibits cytotoxicity
[3]; [6]
  Relative cell viability (average, n = 3): 1.0164
[3]; [7]
  Relative cell viability (average, n = 3): 1.1219
[4]; [6]
  Relative cell viability (average, n = 3): 0.9135
[4]; [7]
  Relative cell viability (average, n = 3): 0.8856
